Several values for one entry are separate records, joined by “and”; a condition that tells them apart may be missing. Equal entries are not always repeated.
Columns and labels:
[1] = target: Nitric oxide synthase, inducible (Homo sapiens) (UniProt P35228); test: Inhibitory activity against Inducible nitric oxide synthase
[2] = target: Nitric oxide synthase 1 (Homo sapiens) (UniProt P29475); test: Inhibitory activity against Neuronal nitric oxide synthase
[3] = target: T1, Nitric oxide synthase 3 (Homo sapiens) (UniProt P29474); test: Inhibitory activity against Endothelial nitric oxide synthase
T1 sequence (whole entry): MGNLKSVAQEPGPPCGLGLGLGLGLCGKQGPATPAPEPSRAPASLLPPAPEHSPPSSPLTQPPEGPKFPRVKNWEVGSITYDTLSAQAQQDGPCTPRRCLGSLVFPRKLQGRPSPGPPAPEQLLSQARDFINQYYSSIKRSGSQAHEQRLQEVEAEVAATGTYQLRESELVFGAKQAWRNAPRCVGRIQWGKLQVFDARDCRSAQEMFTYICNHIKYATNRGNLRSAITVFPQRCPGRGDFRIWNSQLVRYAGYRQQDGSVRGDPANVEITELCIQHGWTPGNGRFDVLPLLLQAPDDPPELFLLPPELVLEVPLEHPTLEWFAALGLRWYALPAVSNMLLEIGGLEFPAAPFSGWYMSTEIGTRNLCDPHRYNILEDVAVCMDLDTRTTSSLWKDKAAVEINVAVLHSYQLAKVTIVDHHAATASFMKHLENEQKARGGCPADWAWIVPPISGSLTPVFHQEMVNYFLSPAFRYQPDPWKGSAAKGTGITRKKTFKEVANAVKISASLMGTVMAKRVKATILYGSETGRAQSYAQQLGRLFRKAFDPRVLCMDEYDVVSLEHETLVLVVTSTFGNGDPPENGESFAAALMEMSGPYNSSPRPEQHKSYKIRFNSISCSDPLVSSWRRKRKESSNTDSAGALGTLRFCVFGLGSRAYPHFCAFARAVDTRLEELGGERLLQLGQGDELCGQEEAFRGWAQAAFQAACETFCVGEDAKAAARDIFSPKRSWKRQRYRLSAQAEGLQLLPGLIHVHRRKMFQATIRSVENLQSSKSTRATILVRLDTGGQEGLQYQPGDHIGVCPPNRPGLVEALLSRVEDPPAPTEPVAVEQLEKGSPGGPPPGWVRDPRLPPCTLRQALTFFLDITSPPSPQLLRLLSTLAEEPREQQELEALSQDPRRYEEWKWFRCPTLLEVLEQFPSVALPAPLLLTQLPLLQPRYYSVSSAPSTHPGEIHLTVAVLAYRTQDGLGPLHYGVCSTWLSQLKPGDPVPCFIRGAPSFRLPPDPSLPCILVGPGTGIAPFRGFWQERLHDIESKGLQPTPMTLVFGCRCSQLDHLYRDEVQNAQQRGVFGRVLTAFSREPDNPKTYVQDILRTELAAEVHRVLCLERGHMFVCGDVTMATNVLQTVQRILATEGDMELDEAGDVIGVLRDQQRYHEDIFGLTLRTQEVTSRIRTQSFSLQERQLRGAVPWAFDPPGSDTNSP

[4] = target: Human immunodeficiency virus type 1 protease (Human immunodeficiency virus 1, UniProt Q72874); test: Inhibitory concentration against HIV aspartyl protease
[5] = Inhibitory concentration against Alpha-chymotrypsin
[6] = target: Human immunodeficiency virus type 1 protease (Human immunodeficiency virus 1) (UniProt Q72874); test: Initial effective dose against protease of human immunodeficiency virus type 1
[7] = target: Human immunodeficiency virus type 1 protease (Human immunodeficiency virus 1) (UniProt Q72874); test: Effective dose against protease of human immunodeficiency virus type 1
Chymotrypsin-C = target: T2, Chymotrypsin-C (Homo sapiens, UniProt Q99895); test: Inhibitory concentration against Alpha-chymotrypsin; In active at 100 uM
T2 sequence (Q99895 whole entry): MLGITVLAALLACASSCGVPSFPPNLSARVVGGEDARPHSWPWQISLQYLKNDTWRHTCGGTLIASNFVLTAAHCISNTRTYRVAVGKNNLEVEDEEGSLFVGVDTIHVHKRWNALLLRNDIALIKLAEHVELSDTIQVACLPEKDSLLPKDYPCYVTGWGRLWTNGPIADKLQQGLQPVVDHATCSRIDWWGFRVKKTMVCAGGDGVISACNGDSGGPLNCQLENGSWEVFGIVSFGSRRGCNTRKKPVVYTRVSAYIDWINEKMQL

Chain of Nitric oxide synthase, inducible (Homo sapiens) (P35228 whole entry): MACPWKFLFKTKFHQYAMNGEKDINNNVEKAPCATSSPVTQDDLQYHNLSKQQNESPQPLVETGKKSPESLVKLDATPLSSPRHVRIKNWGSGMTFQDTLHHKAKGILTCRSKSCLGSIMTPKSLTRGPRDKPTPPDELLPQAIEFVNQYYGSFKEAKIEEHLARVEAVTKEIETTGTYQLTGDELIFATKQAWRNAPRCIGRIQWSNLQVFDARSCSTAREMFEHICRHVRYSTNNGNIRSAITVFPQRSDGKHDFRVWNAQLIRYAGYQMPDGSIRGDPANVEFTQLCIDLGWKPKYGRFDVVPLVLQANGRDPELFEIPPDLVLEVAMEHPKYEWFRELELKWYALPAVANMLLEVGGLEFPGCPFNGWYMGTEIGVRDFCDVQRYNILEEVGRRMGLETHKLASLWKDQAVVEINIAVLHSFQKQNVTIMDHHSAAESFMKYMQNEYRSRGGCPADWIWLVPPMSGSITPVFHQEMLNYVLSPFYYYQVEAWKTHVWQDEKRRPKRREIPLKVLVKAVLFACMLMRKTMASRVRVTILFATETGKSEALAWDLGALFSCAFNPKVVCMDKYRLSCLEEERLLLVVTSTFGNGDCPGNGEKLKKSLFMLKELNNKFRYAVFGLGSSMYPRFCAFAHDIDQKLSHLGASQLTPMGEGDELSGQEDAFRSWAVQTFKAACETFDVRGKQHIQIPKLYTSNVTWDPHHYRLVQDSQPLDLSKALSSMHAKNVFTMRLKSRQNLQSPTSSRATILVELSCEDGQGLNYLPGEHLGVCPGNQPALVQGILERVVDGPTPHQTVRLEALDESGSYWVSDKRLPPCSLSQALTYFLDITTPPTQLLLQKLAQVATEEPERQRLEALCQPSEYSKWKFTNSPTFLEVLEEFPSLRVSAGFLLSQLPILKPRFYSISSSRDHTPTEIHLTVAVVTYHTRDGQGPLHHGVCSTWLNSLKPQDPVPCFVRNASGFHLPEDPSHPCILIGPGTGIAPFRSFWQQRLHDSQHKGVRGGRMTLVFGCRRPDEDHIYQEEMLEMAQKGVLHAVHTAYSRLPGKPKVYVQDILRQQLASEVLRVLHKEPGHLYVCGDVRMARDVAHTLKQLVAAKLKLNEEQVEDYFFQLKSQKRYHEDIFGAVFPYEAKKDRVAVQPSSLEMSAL
Chain of Nitric oxide synthase 1 (Homo sapiens) (P29475 whole entry): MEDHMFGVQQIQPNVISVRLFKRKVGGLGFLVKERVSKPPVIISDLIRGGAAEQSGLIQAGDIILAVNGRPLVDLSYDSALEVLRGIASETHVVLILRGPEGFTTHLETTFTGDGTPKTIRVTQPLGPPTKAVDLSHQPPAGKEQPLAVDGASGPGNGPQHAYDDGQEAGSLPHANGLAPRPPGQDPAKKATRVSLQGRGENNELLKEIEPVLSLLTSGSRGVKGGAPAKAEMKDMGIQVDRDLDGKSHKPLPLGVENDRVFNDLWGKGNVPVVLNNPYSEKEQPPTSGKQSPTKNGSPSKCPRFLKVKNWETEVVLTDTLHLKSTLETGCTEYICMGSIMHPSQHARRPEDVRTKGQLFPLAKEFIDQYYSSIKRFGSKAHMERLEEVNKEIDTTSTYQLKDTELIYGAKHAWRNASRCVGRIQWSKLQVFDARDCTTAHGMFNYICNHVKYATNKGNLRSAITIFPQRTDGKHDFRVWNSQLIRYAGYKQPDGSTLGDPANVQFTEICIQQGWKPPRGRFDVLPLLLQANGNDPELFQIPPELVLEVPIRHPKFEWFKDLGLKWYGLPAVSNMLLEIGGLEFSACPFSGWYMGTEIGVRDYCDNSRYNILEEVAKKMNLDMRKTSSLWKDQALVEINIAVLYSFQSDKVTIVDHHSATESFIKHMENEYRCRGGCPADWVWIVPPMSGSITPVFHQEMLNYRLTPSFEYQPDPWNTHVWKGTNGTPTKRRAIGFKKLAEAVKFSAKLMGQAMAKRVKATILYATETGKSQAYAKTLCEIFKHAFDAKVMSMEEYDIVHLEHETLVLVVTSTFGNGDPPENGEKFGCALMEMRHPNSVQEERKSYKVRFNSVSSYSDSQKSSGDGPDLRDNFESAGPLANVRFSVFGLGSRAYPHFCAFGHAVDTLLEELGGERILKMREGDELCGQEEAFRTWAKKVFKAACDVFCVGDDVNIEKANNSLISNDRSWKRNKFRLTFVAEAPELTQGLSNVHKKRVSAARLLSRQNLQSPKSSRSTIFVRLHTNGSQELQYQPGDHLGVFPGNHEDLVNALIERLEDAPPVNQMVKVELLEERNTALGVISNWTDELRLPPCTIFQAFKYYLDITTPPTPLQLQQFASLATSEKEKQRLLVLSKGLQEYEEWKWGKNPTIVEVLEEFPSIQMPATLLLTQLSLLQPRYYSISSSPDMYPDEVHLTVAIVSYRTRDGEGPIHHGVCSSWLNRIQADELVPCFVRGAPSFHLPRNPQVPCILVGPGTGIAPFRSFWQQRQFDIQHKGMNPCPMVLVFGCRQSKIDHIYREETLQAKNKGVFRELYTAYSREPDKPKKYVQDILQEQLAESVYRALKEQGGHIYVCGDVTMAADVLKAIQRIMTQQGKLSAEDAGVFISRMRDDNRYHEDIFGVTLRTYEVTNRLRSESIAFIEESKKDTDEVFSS

ED50 [6]	ED90 [7]	IC50 (Chymotrypsin-C)	SMILES	Inhibition [1]	Inhibition [2]	Inhibition [3]	IC50 [4]	IC50 [5]
–	–	–	O=c1oc2ccc(CBr)cc2c2ccc([N+](=O)[O-])cc12	60 µM	250 µM	120 µM	10 µM	> 100 µM
300 µM	0.1 µM	–	CCC[C@@]1(CCc2ccccc2)CC(O)=C([C@H](CC)c2cccc(NS(=O)(=O)c3ccc(C(F)(F)F)cn3)c2)C(=O)O1	–	–	–	–	–
–	–	Inactive	Cc1ccc2oc(=O)c3cc(N)ccc3c2c1	150 µM	900 µM	600 µM	~100 µM	> 100 µM
–	–	–	O=[N+]([O-])c1cccc2cn[nH]c12	15 µM	15 µM	8 µM	–	–
–	–	–	Cc1ccc2oc(=O)c3cc([N+](=O)[O-])ccc3c2c1	–	–	–	50 µM	> 100 µM
–	–	–	Nc1ccc2c(c1)c(=O)oc1ccc(CBr)cc12	110 µM	200 µM	120 µM	50 µM	> 100 µM and ~100 µM

From ChEMBL document CHEMBL1145141, “New 2-bromomethyl-8-substituted-benzo[c]chromen-6-ones. Synthesis and biological properties” (Bioorg Med Chem Lett, 2005)
